According to ChEMBL document CHEMBL3785074, “Molecular modeling and snake venom phospholipase A2 inhibition by phenolic compounds: Structure-activity relationship” (Eur J Med Chem, 2016):
The source made the active and inactive calls. The rule behind the calls is not given here.

Legend:
Daboia russelii [1] = experiment: (§1) Protective activity against Daboia russellii venom-induced hemorrhage in intradermally dosed Swiss albino mouse at 100 mmol assessed as hemorhagic lesion by measuring minimal […] dose preincubated with venom for 1 hr followed by administration to mouse measured after 24 hrs (reference value: 5 ug); assay type: functional
[2] = (§2) Protective activity against Daboia russellii venom-induced hemorrhage in Swiss albino mouse at 100 mmol, iv assessed as hemorhagic lesion by measuring […] administered immediately after venom injection measured after 24 hrs (Rvb =5 ug); assay type: functional, Daboia russelii
[3] = (§3) Protective activity against Daboia russellii venom-induced mortality in Swiss albino mouse at 100 mmol, iv by measuring venom LD50 administered immediately after venom injection measured after 24 hrs (reference value: 2.28ug); assay type: functional, Daboia russelii
[4] = Protective activity against Daboia russellii venom-induced defibrinogenation in iv dosed Swiss albino mouse assessed as venom level causing blood coagulation at 100 mmol administered immediately after venom injection (reference value: 2.5 ug); assay type: functional, Daboia russelii
Naja kaouthia [5] = experiment: Protective activity against Naja kaouthia venom-induced mortality in iv dosed Swiss albino mouse assessed as administered 30 to 60 mins after venom injection; assay type: functional, organism-based
[6] = Protective activity against Naja kaouthia venom-induced mortality in Swiss albino mouse at 100 mmol, iv by measuring venom LD50 preincubated with venom for 1 hr followed by administration to mouse measured after 24 hrs (reference value: 2.82 ug); assay type: functional
[7] = as §1; assay type: functional, Daboia russelii
Daboia russelii [8] = experiment: Protective activity against Daboia russellii venom-induced coagulation in goat plasma assessed as increase in plasma recalcification time at 20 mmol preincubated with venom for 1 hr followed by plasma addition; assay type: functional, cell-free
[9] = Protective activity against Daboia russellii venom-induced defibrinogenation in iv dosed Swiss albino mouse assessed as venom level causing blood coagulation at 100 mmol preincubated with venom for 1 hr followed by administration to mouse relative to untreated; assay type: functional, Daboia russelii
[10] = Protective activity against Daboia russellii venom-induced mortality in Swiss albino mouse at 100 mmol, iv administered immediately after venom injection measured after 24 hrs relative to untreated control; assay type: functional, Daboia russelii
[11] = Protective activity against Naja kaouthia venom-induced mortality in Swiss albino mouse at 100 mmol, iv preincubated with venom for 1 hr followed by administration to mouse measured after 24 hrs relative to untreated control; assay type: functional
[12] = Protective activity against Daboia russellii venom-induced hemorrhage in Swiss albino mouse at 100 mmol, iv assessed as hemorhagic lesion administered immediately after venom injection measured after 24 hrs relative to untreated control; assay type: functional, Daboia russelii
[13] = Protective activity against Daboia russellii venom-induced defibrinogenation in iv dosed Swiss albino mouse assessed as blood coagulation at 100 mmol administered immediately after venom injection relative to untreated control; assay type: functional, Daboia russelii
[14] = Protective activity against Daboia russellii venom-induced defibrinogenation in iv dosed Swiss albino mouse assessed as venom level causing blood coagulation at 100 mmol preincubated with venom for 1 hr followed by administration to mouse (reference value: 2.5 ug); assay type: functional, Daboia russelii
[15] = Protective activity against Daboia russellii venom-induced mortality by measuring venom LD50 in Swiss albino mouse at 100 mmol, iv preincubated with venom for 1 hr followed by administration to mouse measured after 24 hrs (reference value: 2.28 ug); assay type: functional, Daboia russelii
[16] = Protective activity against Naja kaouthia venom-induced mortality in Swiss albino mouse at 100 mmol, iv by measuring venom LD50 administered immediately after venom injection measured after 24 hrs (reference value: 2.82 ug); assay type: functional
[17] = Protective activity against Naja kaouthia venom-induced mortality in Swiss albino mouse at 100 mmol, iv administered immediately after venom injection measured after 24 hrs relative to untreated control; assay type: functional
[18] = Protective activity against Daboia russellii venom-induced hemorrhage in intradermally dosed Swiss albino mouse at 100 mmol assessed as hemorhagic lesion preincubated with venom for 1 hr followed by administration to mouse measured after 24 hrs relative to untreated control; assay type: functional, Daboia russelii
[19] = Protective activity against Daboia russellii venom-induced mortality in Swiss albino mouse at 100 mmol, iv preincubated with venom for 1 hr followed by administration to mouse measured after 24 hrs relative to untreated control; assay type: functional, Daboia russelii
[20] = Lipophilicity, log P of compound; assay type: physicochemical; conditions: octanol/water
Daboia russelii [21] = experiment: Protective activity against Daboia russellii venom-induced mortality in iv dosed Swiss albino mouse administered immediately after venom injection relative to untreated control; assay type: functional, organism-based
[22] = Protective activity against Daboia russellii venom-induced mortality in iv dosed Swiss albino mouse administered 30 mins after venom injection relative to untreated control; assay type: functional, Daboia russelii
[23] = Protective activity against Daboia russellii venom-induced mortality in iv dosed Swiss albino mouse administered 60 mins after venom injection relative to untreated control; assay type: functional, Daboia russelii
Daboia russelii [24] = experiment: as §3; assay type: functional
Daboia russelii [25] = tested on: Daboia russelii
Daboia russelii [26] = experiment: as §2; assay type: functional
Naja kaouthia [27] = tested on: Naja kaouthia
Description: Protective activity against Naja kaouthia venom-induced mortality in Swiss albino mouse at 100 mmol, iv by measuring venom LD50 administered immediately after venom injection measured after 24 hrs (Rvb = 2.82 ug)

Naja kaouthia [28] = tested on: Naja kaouthia; remark: listed apart in the source

| SMILES | MHC (Daboia russelii [1]) | MHC [2] | LD50 [3] | Activity [4] | Activity (Naja kaouthia [5]) | LD50 [6] | MHC [7] | Activity (Daboia russelii [8]) | fold change (FC) [9] | fold change (FC) [10] | fold change (FC) [11] | fold change (FC) [12] | fold change (FC) [13] | Activity [14] | LD50 [15] | LD50 [16] | fold change (FC) [17] | fold change (FC) [18] | fold change (FC) [19] | logP ([20]; read-out: logP) | other results |
| --- | --- | --- | --- | --- | --- | --- | --- | --- | --- | --- | --- | --- | --- | --- | --- | --- | --- | --- | --- | --- | --- |
| O=Cc1ccccc1O | inactive | 10 µg | – | – | – | – | – | – | – | – | – | – | – | – | – | – | – | – | – | – | – |
| CCCCOc1ccc(C=O)c(O)c1 | – | 10 µg | 150 µg | 3.5 µg | inactive | 6 µg | 140 µg | Active | 2.4 | 3.75 | 2.1 | 2 | 1.5 | 6 µg | 18 µg | 10 µg | 2 | 8 | 8 | – | – |
| COc1ccc(C=O)c(O)c1 | – | 10 µg | 150 µg | 3.5 µg | inactive | 9 µg | 50 µg | Active | 8.8 | 3.75 | 3.2 | 2 | 1.5 | 22 µg | 22 µg | 10 µg | 2 | 10 | 9.8 | 3.19 | Activity (Daboia russelii [21]): Active; Activity [22]: 40%; Activity [23]: 10% |
| C=CCOc1ccc(C=O)c(O)c1 | – | 10 µg | 150 µg | 3.5 µg | inactive | 9 µg | 50 µg | Active | 2 | 3.75 | 3.2 | 2 | 1.5 | 5 µg | 22 µg | 10 µg | 2 | 10 | 9.8 | – | Activity (Daboia russelii [21]): Active; Activity [22]: 40% |
| COc1cccc(C=O)c1O | – | 10 µg | 150 µg | 3.5 µg | inactive | 9 µg | 50 µg | Active | 10 | 3.75 | 3.2 | 2 | 1.5 | 25 µg | 25 µg | 10 µg | 2 | 10 | 11.2 | – | logP [20]: 2.39; Activity (Daboia russelii [21]): Active; Activity [22]: 40%; Activity [23]: 10% |
| O=Cc1ccccc1 [BENZALDEHYDE] | inactive | – | – | – | – | – | – | – | – | – | – | – | – | – | – | – | – | – | – | 1.47 | LD50 (Daboia russelii [24]): inactive; LD50 (Daboia russelii [25]): inactive; MHC (Daboia russelii [26]): inactive; LD50 (Naja kaouthia [27]): inactive; LD50 (Naja kaouthia [28]): inactive |
| O=[N+]([O-])c1ccc2c(c1)OCO2 | inactive | – | – | – | – | – | – | – | – | – | – | – | – | – | – | – | – | – | – | 1.47 | LD50 (Daboia russelii [24]): inactive; LD50 (Daboia russelii [25]): inactive; MHC (Daboia russelii [26]): inactive; LD50 (Naja kaouthia [27]): inactive; LD50 (Naja kaouthia [28]): inactive |
| COc1ccc(CO)c(O)c1 | – | 5 µg | 150 µg | 3.5 µg | inactive | 9 µg | 30 µg | Active | 10 | 3.75 | 3.2 | 1 | 1.5 | 25 µg | 22 µg | 10 µg | 2 | 6 | 9.8 | – | Activity (Daboia russelii [21]): Active; Activity [22]: 40%; Activity [23]: 10% |
| CC(=O)Oc1ccc(C=O)c(O)c1 | inactive | – | – | – | – | – | – | – | – | – | – | – | – | – | – | – | – | – | – | 0.94 | LD50 (Daboia russelii [24]): inactive; LD50 (Daboia russelii [25]): inactive; MHC (Daboia russelii [26]): inactive; LD50 (Naja kaouthia [27]): inactive; LD50 (Naja kaouthia [28]): inactive |
